Assay results from publication PMC5789847, “Bismuth antimicrobial drugs serve as broad-spectrum metallo-β-lactamase inhibitors” (Nature Communications, 2018).

How the values were obtained:
[1] = system: NDM-K. pneumonia (NDM-1^+); test: Microdilution MIC/MBC and checkerboard assay; assay type: cell-based, Klebsiella pneumonia
Protocol: MIC values were determined by standard broth micro-dilution method (Clinical and Laboratory Standards Institute (CLSI) M100-S20, 2010)[64]. Briefly, bacterial cells were cultured in LB broth overnight at 37 °C at 250 rpm and the OD was measured at 600 nm (OD600). The bacterial density was adjusted to about 1 × 10^6 CFU mL^−1 and checked by CFU counting on agar plates afterwards. Tested antibiotics or Bi(III) compounds were added triplicately into individual wells of flat-bottomed 96-well plates and performed 2-fold serial dilution, followed by addition of prepared bacterial inocula. The plate was then incubated at 37 °C for overnight. […] The MIC was determined as the lowest concentration of a drug that could inhibit the growth of microorganism by both visual reading and OD reading at 600 nm using a microtiter plate reader.
Resulting growth (or lack of growth) was examined after overnight culturing and the lowest concentration that inhibits 99.9% of the original culture was taken as MBC.
Other procedures were kept strictly the same. […] Synergism was defined when FICI ≤ 0.5, indifference was defined when FICI > 0.5 and < 4, and antagonism was defined when FICI≥4[65]. […] All of the determinations were performed at least in triplicate on different days.

IMP-4 = test: IC50 enzyme inhibition assay; assay type: biochemical; settings: MER substrate
Protocol: Freshly prepared 50 nM of Zn2-NDM-1, Zn2-VIM-2, or Zn2-IMP-4 in 50 mM HEPES/Na pH 7.0, 100 mM NaCl were first incubated with various concentrations of CBS for 1 h at 25 °C, then mixed with equal volume of 0.2 mM MER. The assay was performed in a 1 cm quartz cuvette using the kinetic mode on a Varian Cary50 UV-visible spectrophotometer at 25 °C. The decrease in absorbance at 300 nm due to ring-opening of MER was monitored every second for a duration of 10 min until the reaction was completed. The initial rates were extracted and calculated from each reaction curves for fitting IC50 curves.

NDM-HK = test: Murine peritonitis infection, mucin-assisted model; assay type: in vivo, BALB/c mice; settings: 2% mucin
Source text: All experiments were approved by, and performed in accordance with the guidelines approved by Committee on the Use of Live Animals in Teaching and Research (CULATR), the University of Hong Kong. A total of 6–8-week-old, female BALB/c mice (18–22 g) were purchased from Charles River Laboratories, Inc. and were used in all mouse studies. The animals were randomized to cages for each experiment.
In mucin-assisted model, for infection with NDM-1-positive bacteria, an overnight culture of NDM-HK was performed 1:250 dilution in 100 mL LB broth and re-grew to about OD600 0.3 in a 500-mL flask after 2.5 h shaking at 37 °C, 250 rpm. Bacterial pellets were collected and washed by PBS buffer three times for further use. Mice were infected intraperitoneally (i.p.) with a dose of 1 × 10^5 CFU of bacteria in PBS supplemented with 2% mucin. […] Twice-daily treatment via i.p. injection was continued throughout the whole experimental course. For the infection with NDM-1-negative bacteria, all the operations of infection were similar to those used for NDM-HK, except that NDM-HK PCV was used as infection-causing bacteria. […] Twice-daily treatment via i.p. injection was continued throughout the whole experimental course. Body weights and mice survival were monitored till endpoint of the experiment.

NDM-1-C208A = NDM-1-C208A (Klebsiella pneumoniae, UniProt C7C422, C208A); test: Residual enzyme activity of NDM-1 variant with CBS at IC50; assay type: biochemical; settings: CBS at IC50 concentration, compared with WT NDM-1
[2] = parameters: method as in earlier work; settings: treatment of peptic ulcer disease; cited from earlier work
NDM-1 = NDM-1 (Klebsiella pneumoniae, UniProt C7C422); assay type: cell-based; parameters: endogenous in cells; host or cells: E. coli clinical isolate NDM-HK; settings: NDM-HK cultured with 100 µM compound; control 50.1 °C
Protocol: The cellular thermal shift assay was performed according to a standard method. Clinical isolate of NDM-1-positive E. coli (NDM-HK) was cultured overnight in the absence or presence of 100 µM Bi(III) compounds, i.e., CBS, Bi(NAC)3, Bi(NIT)3. The bacterial pellets were harvested and washed with PBS for 4 times. The cell suspensions were aliquoted into PCR tubes and heat treatment was performed at the designated temperature ranging from 40 °C to 70 °C for 3 min in a 96-well thermal cycler. The tubes were cooled immediately at room temperature for another 3 min after heating and the heating procedures were repeated for three cycles. For the cell lysis, the samples were frozen–thawed for two cycles in liquid nitrogen and thermal cycler set at 25 °C. The samples were vortexed gently after each cycle and were centrifuged at 20,000 × g to obtain the supernatant when the second cycle was finished. All the samples were subjected to western blot analysis for detection and quantification of NDM-1 content as described above.

Sequence of NDM-1 (C7C422 29-270 limits assumed): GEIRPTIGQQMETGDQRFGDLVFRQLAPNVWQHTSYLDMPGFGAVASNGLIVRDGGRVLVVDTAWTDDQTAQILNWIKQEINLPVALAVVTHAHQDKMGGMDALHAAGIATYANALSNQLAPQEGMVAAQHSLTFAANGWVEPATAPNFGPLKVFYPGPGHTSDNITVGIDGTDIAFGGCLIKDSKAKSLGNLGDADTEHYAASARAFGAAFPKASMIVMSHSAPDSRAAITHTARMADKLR
Sequence of NDM-1-C208A (C7C422 29-270 C208A): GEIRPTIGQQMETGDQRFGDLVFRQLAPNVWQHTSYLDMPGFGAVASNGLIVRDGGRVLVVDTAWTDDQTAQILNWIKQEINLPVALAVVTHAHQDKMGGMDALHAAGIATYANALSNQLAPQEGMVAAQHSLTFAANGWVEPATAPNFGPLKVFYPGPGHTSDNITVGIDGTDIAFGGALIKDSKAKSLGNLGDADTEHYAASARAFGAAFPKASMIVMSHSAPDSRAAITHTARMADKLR

colloidal bismuth subcitrate [CBS]
MBC of MER in combination with compound at 32 µg mL^-1 ([1]; NDM-K. pneumonia (NDM-KP)): 8 µg/mL | MIC of MER in combination with compound at 32 µg mL^-1 ([1]; NDM-K. pneumonia (NDM-KP)): 4 µg/mL | MBC of Bi(III) compound alone ([1]; NDM-KP): > 256 µg/mL | MIC of Bi(III) compound alone ([1]; NDM-KP): > 256 µg/mL | FICI ([1]; NDM-KP, MER + compound, 256 µg mL^-1 set as MIC of Bi(III)): 0.375 | IC50 (IMP-4; IMP-4 50 nM, 1 h preincubation): 700 ± 80 nM | maximal inhibition of MBL activity (IMP-4; IMP-4, dose-dependent): approximately 90% | protection from death, CBS monotherapy (NDM-HK; i.p. twice daily from 4 h post infection, CBS 20 mg kg^−1 (Fig. 4f), within 48 h): failed to protect any of the mice from death | mice survival rate, combination therapy of MER and CBS (NDM-HK; i.p. twice daily, MER + CBS 20 mg kg^−1 (Fig. 4f)): 50% | inhibitory effect on NDM-1-C208A (NDM-1-C208A): much reduced inhibitory effect | intoxication at recommended dosage [2]: No intoxication has been documented | NDM-1 melting temperature, treated group (NDM-1): 48 °C
